Source: article PMC8842277, “Highly Antiproliferative Latonduine and Indolo[2,3-c]quinoline Derivatives: Complex Formation with Copper(II) Markedly Changes the Kinase Inhibitory Profile” (Journal of Medicinal Chemistry, 2022)

Tests used:
Colo320 cells = assay: Apoptosis assay, Annexin-V-FITC/PI flow cytometry; conditions: 3 h induction
Description: An apoptosis assay was performed by flow cytometry via the analysis of multidrug-resistant Colo320 cells stained with Annexin-V-FITC and propidium iodide (PI).
Colo320 cells were treated at the indicated concentration of the compounds. The dual parametric dot plots combining Annexin-V (FL1) and PI (FL3) fluorescence show the viable cell population in the lower left quadrant Annexin-V–/PI– (Q4), the early apoptotic cells in the lower right quadrant Annexin-V+/PI– (Q3), and the late apoptotic and necrotic cells in the upper right quadrant Annexin-V+/PI+ (Q2).
The assay was carried out for selected compounds using an Annexin V-FITC Apoptosis Detection Kit (cat. no. APOAF-50TST) from Sigma according to the manufacturer’s instructions. The concentration of the Colo320 cell suspension was adjusted to approximately 0.5 × 10^6 cells/mL in an RPMI 1640 medium, and the cell suspension was distributed in 1 mL of aliquots into a 24-well plate and then incubated overnight at 37 °C and 5% CO2. On the following day, the medium was removed and replaced by 1 mL of RPMI medium containing the compounds except the control samples. […] After the incubation period, the samples were washed with PBS and fresh RPMI 1640 medium was added to the samples. The cells were incubated overnight at 37 °C and 5% CO2. The next day, 200 μL of 0.25% Trypsin (Trypsin-Versen) was added to the samples until cells appeared detached followed by the addition of 400 μL of RPMI 1640 medium supplemented with 10% bovine serum. The cells were collected in Eppendorf tubes and centrifuged at 2000g for 2 min. The harvested cells were resuspended in fresh serum-free RPMI 1640 culture medium. After this step, the apoptosis assay was carried out according to the instructions of the manufacturer. The fluorescence was analyzed immediately using a ParTec CyFlow flow cytometer (Partec GmbH, Münster, Germany).
• Apoptosis and DNA binding studies […]

[1] = Stability in diluted blood serum by UV–vis; assay type: in vitro ADME, human; conditions: pH 7.40, diluted with HEPES or PBS
Description: Measurements with diluted serum show a more elaborate picture. […] The new band cannot be undoubtedly attributed to the liberation of ligand HL^8.
Aqueous stability of 4, 8, and HL^4 was investigated in phosphate-buffered saline (PBS) and 10 mM HEPES buffers and in three-times diluted blood serum (Sigma Aldrich, from human male AB plasma) at pH = 7.40. The concentration of the compounds was between 5 and 10 μM. Blood serum was filtered on a 1.25 μm polyethersulfone membrane syringe filter and diluted with 10 mM HEPES or PBS buffer.

[2] = tested on: HCT-116 colon carcinoma cells; assay: MTT assay, 96 h; assay type: cell-based, human
Excerpt: The oncosuppressor protein p53 controls the cellular response to DNA strand breaks induced by cytotoxic drugs or by radiation.[58] The p53 protein may enhance cell chemosensitivity by promoting apoptosis via different mechanisms including activation of proapoptotic genes such as bax and repression of antiapoptotic genes such as bcl-2 or in contrast increase chemoresistance by promoting p21-mediated and p21-independent growth arrest and DNA repair and by activation of antiapoptotic genes such as bcl-x. There is strong evidence that the modulation of drug sensitivity by p53 may be both drug- and cell type-specific.[59] […] Accordingly, essential differences in chemosensitivity were observed between cells with wild-type p53 gene and cells with knocked out p53 gene by homologous recombination.[60]
Human colonic adenocarcinoma cell lines Colo 205 doxorubicin-sensitive (ATCC-CCL-222) and Colo 320/MDR-LRP multidrug resistant over-expressing ABCB1 (MDR1)-LRP (ATCC-CCL-220.1) were purchased from LGC Promochem, Teddington, UK. The cells were cultured in an RPMI 1640 medium supplemented with 10% heat-inactivated fetal bovine serum, 2 mM L-glutamine, 1 mM Na-pyruvate, and 10 mM HEPES. The semi-adherent human colon cancer cells were detached with Trypsin-Versene (EDTA) solution for 5 min at 37 °C. An MRC-5 human embryonal lung fibroblast cell line (ATCC CCL-171) was purchased from LGC Promochem, Teddington, UK. The cells were cultured in Eagle’s minimal essential medium (EMEM, containing 4.5 g L^–1 glucose) supplemented with a non-essential amino acid mixture, a selection of vitamins, and 10% heat-inactivated fetal bovine serum. The HCT-116 colon carcinoma cells and isogenic p53-knock-out subline were a gift of Prof. Bert Vogelstein from The Johns Hopkins Oncology Center. Cells were cultured in McCoy’s 5A medium supplemented with 10% heat-inactivated fetal bovine serum and 4 mM L-glutamine. All cell lines were incubated at 37 °C, in a 5% CO2, 95% air atmosphere.
MRC-5 non-cancerous human embryonic lung fibroblast and human colonic adeno-carcinoma cell lines (doxorubicin-sensitive Colo 205 and multidrug resistant Colo 320 colonic adenocarcinoma cells) were used to determine the effect of compounds on cell growth. The effects of increasing concentrations of compounds on cell growth were tested in 96-well flat-bottomed microtiter plates. The compounds were dissolved in DMSO and stock solutions of 10 mM were prepared. These were further diluted in the appropriate cell culture medium by twofold serial dilution starting from 100 or 10 μM for the compounds. The adherent human embryonal lung fibroblast cells were cultured in 96-well flat-bottomed microtiter plates using EMEM supplemented with 10% heat-inactivated fetal bovine serum. The density of the cells was adjusted to 1 × 10^4 cells in 100 μL per well, the cells were seeded for 24 h at 37 °C, 5% CO2, then the medium was removed from the plates containing the cells, and the dilutions of compounds previously made in a separate plate were added to the cells in 200 μL. In the case of the colonic adenocarcinoma cells, the twofold serial dilutions of compounds were prepared in 100 μL of RPMI 1640, horizontally. The semi-adherent colonic adenocarcinoma cells were treated with Trypsin-Versene (EDTA) solution. They were adjusted to a density of 1 × 10^4 cells in 100 μL of RPMI 1640 medium and were added to each well, with the exception of the medium control wells. […]

Compound | Cell death % Q1 (Colo320 cells; 0.25 µM) [%] | Early apoptosis % Q3 (Colo320 cells; 0.25 µM) [%] | Late apoptosis and necrosis % Q2 (Colo320 cells; 0.25 µM) [%] | Cell death % Q1 (Colo320 cells; 0.5 µM) [%] | Early apoptosis % Q3 (Colo320 cells; 0.5 µM) [%] | Late apoptosis and necrosis % Q2 (Colo320 cells; 0.5 µM) [%] | Behaviour in blood serum diluted by factor 3 [1] | IC50 [2] [nM] | Cell death % Q1 (Colo320 cells; 2 µM) [%] | Early apoptosis % Q3 (Colo320 cells; 2 µM) [%] | Late apoptosis and necrosis % Q2 (Colo320 cells; 2 µM) [%]
CC(=NNC1=NCc2ccccc2-c2c1[nH]c1ccc(Br)cc21)c1ccc(CN2CCOCC2)cn1.[Cl][Cu][Cl] [compound 4, CuCl2(HL^4)·0.5H2O] | 5.10 | 7.48 | 12.7 | 4.76 | 5.18 | 11.6 | a similar behavior was observed, even though changes were smaller | 130 | – | – | –
CC(=NNc1nc2ccccc2c2c1[nH]c1ccc(Br)cc12)c1ccc(CN2CCOCC2)cn1.[Cl][Cu][Cl] [compound 8, CuCl2(HL^8)·H2O] | – | – | – | 4.52 | 6.01 | 12.1 | partial decomposition of the complex | 50 | 1.76 | 6.91 | 6.97
